From PMC4975316 (EJIFCC, 2011)

Molecular target: T1, β2GPI (Homo sapiens, UniProt P02749)
T1 sequence (P02749 20-345): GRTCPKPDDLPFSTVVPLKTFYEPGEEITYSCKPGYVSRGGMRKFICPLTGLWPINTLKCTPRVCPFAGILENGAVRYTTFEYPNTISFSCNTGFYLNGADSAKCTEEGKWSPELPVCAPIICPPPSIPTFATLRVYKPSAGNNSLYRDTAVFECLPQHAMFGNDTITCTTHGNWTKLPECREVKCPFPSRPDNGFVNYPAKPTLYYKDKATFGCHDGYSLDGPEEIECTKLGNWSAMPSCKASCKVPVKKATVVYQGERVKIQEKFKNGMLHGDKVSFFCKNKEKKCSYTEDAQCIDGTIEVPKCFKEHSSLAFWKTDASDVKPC
Experiment: Surface plasmon resonance
Format: binding
Conditions: inferred from extremely fast dissociation; 0.005% PBST pH 7.4, 25°C

## KVWTIPRGGGS
  Affinity towards β2GPI indicated by dissociation (SPR): low affinity towards β2GPI
